Experimental data taken from US12012628B2, “Method to elevate the amount of steviol glycosides remained in the recrystallization mother liquor of Stevia extract” (Jiangnan University, priority 2018, dated 2024).
Like-named read-outs stand apart in the source and are kept apart here. Values belong to the compound of their own block, whether it stands above or below them.

Key:
[1] = n-butyl alcohol/water partition coefficients of steviol glycosides; format: physicochemical
Text: The n-butyl alcohol/water partition coefficients of several major steviol glycosides in the mother liquor glycosides are shown in Table 1. It can be seen in Table 1 that the polarity difference between rebaudioside A and rebaudioside C and rubusoside is far larger than the polarity difference between rebaudioside A and rebaudioside C and stevioside; and thus, after stevioside is converted into rubusoside, rebaudioside A and rebaudioside C can be separated out of a mixture more easily than before.

[2] = biological target: T1, lactase (Lactozym 3000 L HP-G) from Kluyveromyces lactis (Kluyveromyces lactis, UniProt P00723); experiment: Hydrolysis of stevioside in Stevia sugar by commercial lactase, HPLC; format: biochemical; conditions: Stevia sugar 450 g/L, pH5 buffer; 100 U/g stevioside; 30° C., 2 h
T1 construct: purchased Novozymes Lactozym 3000 L HP-G
Description: (§1) 450 g/L glycoside liquid is prepared with a pH5 phosphate-potassium phosphate buffer solution (50 mmol/L) from Stevia sugar (containing 22% of rebaudioside A, 68% of stevioside and 3% of rebaudioside C in percentages by mass). The lactase (trade name: Lactozym 3000 L HP-G, purchased from Novozymes company in China) from Kluyveromyces lactis is added to reach an enzyme concentration of 100 U/g stevioside for reaction at 30° C. for 2 h.

[3] = test system: lactase from Kluyveromyces fragilis (ATCC 8554); experiment: Lactase-catalysed hydrolysis of steviol glycosides, HPLC analysis of the reaction mixture; format: biochemical
Description: A standard curve is drawn with rebaudioside A (HPLC 99%) as a standard sample, concentrations of rebaudioside A, stevioside and rubusoside are figured out through the standard curve of rebaudioside A by means of an analysis and detection method of steviol glycosides in JECFA2016.
A conversion rate calculation formula of stevioside: α=[(C0−Ct)/C0]×100% (1)
(§2) 250 g/L glycoside liquid is prepared with deionized water from Stevia sugar (containing 22% of rebaudioside A, 68% of stevioside and 3% of rebaudioside C in percentages by mass). The lactase freeze-dried powder obtained in Example 1 is added to reach an enzyme concentration of 60 U/g stevioside for reaction at 35° C. for 2 h.
as §2, with “of 150” for “of 60”, “for 24” for “for 2”
100 g/L glycoside liquid is prepared from the Stevia mother liquor glycosides (containing 47% of rebaudioside A, 19% of stevioside and 7% of rebaudioside C in percentages by mass). The lactase freeze-dried powder obtained in Example 1 is added to reach an enzyme concentration of 30 U/g stevioside for reaction at 25° C. for 0.5 h. […] It can be seen that a conversion rate of stevioside will drop at a low temperature, a low enzyme concentration and a short reaction time.
A 200 g/L stevioside solution is prepared by dissolving 20 g of stevioside (97%, HPLC) in 100 mL of deionized water into a reactor. The lactase freeze-dried powder obtained in Example 1 is added to reach an enzyme concentration of 90 U/g stevioside for reaction at 35° C. for 2 h.
The lactase freeze-dried powder obtained in Example 1 is added to a mixed glycoside solution (50% of stevioside and 50% of rebaudioside A) with a solid content of 200 g/L to reach an enzyme concentration of 200 U/g stevioside, stirred at 35° C. for 2 h.
A 10 g/L rebaudioside A solution is prepared by dissolving 1 g of rebaudioside A (99%, HPLC) in 100 mL of deionized water and preheated for 30 min at 30° C. The lactase freeze-dried powder obtained in Example 1 is added to reach an enzyme concentration of 100 U/g rebaudioside A for reaction for 24 h at 30° C.

[4] = biological target: T2, lactase (Maxilact LG 2000) from Kluyveromyces lactis (Kluyveromyces lactis, UniProt P00723); experiment: Hydrolysis of stevioside in Stevia sugar by commercial lactase, HPLC; format: biochemical; conditions: Stevia sugar 450 g/L, pH5 buffer, 100 U/g stevioside, 30° C.
T2 construct: purchased Royal DSM Maxilact LG 2000
Description: 450 g/L glycoside liquid is prepared with a pH5 phosphate-potassium phosphate buffer solution (50 mmol/L) from Stevia sugar (containing 22% of rebaudioside A, 68% of stevioside and 3% of rebaudioside C in percentages by mass). […]

[5] = biological target: T3, lactase (Lactozym Pure 7500 L) (Kluyveromyces lactis, UniProt P00723); experiment: as above; format: biochemical; conditions: Stevia sugar 450 g/L, pH5 buffer; 100 U/g stevioside; 30° C., 2 h
T3 construct: purchased Novozymes Lactozym Pure 7500 L
Description: as §1, with “(Lactozym Pure 7500 L,” for “(trade name: Lactozym 3000 L HP-G,”, “China)” for “China) from Kluyveromyces lactis”

[6] = biological target: lactase from Aspergillus niger (ATCC 9029) (Aspergillus niger, UniProt P29853); experiment: Hydrolysis of stevioside in Stevia sugar by lactase, HPLC; format: biochemical; conditions: Stevia sugar 450 g/L, pH5 buffer; 100 U/g stevioside; 30° C., 2 h
Description: as §1, with “lactase” for “lactase (trade name: Lactozym 3000 L HP-G, purchased”, “Aspergillus niger (ATCC® 9029™)” for “Novozymes company in China) from Kluyveromyces lactis”

T2 sequence (P00723 whole entry): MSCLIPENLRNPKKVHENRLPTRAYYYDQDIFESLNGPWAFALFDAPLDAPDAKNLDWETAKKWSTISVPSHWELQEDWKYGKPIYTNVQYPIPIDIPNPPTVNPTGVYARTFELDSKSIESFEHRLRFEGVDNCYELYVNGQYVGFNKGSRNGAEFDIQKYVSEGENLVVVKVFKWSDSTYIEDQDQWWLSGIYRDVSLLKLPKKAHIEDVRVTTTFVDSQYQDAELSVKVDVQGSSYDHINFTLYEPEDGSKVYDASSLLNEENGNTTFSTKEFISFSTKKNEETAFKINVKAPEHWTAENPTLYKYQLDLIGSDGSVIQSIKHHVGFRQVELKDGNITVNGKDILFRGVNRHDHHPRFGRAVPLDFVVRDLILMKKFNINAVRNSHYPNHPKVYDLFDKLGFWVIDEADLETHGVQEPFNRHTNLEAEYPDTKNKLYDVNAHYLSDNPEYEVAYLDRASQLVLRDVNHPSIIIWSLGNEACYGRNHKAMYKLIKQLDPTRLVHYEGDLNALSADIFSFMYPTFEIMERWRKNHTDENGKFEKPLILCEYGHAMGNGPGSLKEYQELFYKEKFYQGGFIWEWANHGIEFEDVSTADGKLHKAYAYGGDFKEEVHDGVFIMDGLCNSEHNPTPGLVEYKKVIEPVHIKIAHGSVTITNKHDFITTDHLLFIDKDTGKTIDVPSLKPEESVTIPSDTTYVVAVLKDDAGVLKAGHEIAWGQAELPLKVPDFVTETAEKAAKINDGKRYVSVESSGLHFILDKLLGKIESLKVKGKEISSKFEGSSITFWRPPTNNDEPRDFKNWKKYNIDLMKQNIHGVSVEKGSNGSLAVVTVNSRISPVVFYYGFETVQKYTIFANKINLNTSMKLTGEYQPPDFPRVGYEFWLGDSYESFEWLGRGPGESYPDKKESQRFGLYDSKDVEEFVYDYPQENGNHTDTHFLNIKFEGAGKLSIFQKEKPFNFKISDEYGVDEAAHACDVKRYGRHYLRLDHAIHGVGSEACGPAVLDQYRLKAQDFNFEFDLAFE
T3 sequence (P00723 whole entry): as above
T1 sequence (P00723 whole entry): as above
lactase from Aspergillus niger (ATCC 9029), sequence (P29853 20-1006): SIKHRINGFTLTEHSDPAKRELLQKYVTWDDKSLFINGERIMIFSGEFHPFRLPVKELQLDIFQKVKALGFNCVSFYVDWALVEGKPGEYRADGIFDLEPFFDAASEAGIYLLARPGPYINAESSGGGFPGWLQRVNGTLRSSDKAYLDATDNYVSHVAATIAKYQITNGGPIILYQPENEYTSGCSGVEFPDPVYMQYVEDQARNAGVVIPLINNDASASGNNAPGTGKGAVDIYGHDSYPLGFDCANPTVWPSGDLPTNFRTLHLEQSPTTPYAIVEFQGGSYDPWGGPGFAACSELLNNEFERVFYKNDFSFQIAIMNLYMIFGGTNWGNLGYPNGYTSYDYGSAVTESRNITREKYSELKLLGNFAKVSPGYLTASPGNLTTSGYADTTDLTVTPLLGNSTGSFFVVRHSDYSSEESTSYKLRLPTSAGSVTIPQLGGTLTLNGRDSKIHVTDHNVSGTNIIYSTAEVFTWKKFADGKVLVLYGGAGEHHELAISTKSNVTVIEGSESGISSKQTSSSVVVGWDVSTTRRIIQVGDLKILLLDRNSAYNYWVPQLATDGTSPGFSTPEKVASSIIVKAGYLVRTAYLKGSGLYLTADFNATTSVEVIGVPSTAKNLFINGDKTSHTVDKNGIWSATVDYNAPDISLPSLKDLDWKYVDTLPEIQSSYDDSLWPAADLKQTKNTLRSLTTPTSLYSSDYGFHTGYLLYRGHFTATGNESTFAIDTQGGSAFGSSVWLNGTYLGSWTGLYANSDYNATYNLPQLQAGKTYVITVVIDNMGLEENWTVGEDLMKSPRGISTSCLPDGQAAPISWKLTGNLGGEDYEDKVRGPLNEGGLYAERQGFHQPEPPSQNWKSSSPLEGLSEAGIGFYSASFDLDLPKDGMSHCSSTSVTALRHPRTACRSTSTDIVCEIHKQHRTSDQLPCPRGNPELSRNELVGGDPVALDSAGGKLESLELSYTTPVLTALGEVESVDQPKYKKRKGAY

- n-butyl alcohol/water partition coefficients [1]: 3.5
Compound: C=C1C[C@@]23CC[C@H]4[C@@](C)(CCC[C@@]4(C)C(=O)O[C@@H]4O[C@H](CO)[C@@H](O)[C@H](O)[C@H]4O)[C@@H]2CC[C@]1(O[C@@H]1O[C@H](CO)[C@@H](O)[C@H](O)[C@H]1O)C3 [rubusoside]

Compound: C=C1C[C@@]23CC[C@H]4[C@@](C)(CCC[C@@]4(C)C(=O)O[C@@H]4O[C@H](CO)[C@@H](O)[C@H](O)[C@H]4O)[C@@H]2CC[C@]1(O[C@@H]1O[C@H](CO)[C@@H](O)[C@H](O)[C@H]1O[C@@H]1O[C@H](CO)[C@@H](O)[C@H](O)[C@H]1O)C3 [stevioside]
- conversion of stevioside [2]: not converted
- conversion rate of stevioside ([3]; 50% stevioside + 50% rebaudioside A, 200 g/L, 200 U/g stevioside, 35° C., 2 h): 99.5%
- conversion rate of stevioside ([3]; 200 g/L stevioside (97%) solution, 90 U/g stevioside, 35° C., 2 h): 98.9%
- conversion rate of stevioside ([3]; Stevia mother liquor glycosides 100 g/L (19% stevioside), 30 U/g stevioside, 25° C., 0.5 h): 72.7%
- conversion rate of stevioside ([3]; Stevia sugar 250 g/L (68% stevioside), 60 U/g stevioside, 35° C., 2 h): 98.3%
- conversion rate of stevioside ([3]; Stevia sugar 250 g/L (68% stevioside), 150 U/g stevioside, 35° C., 24 h): 99.5%
- conversion of stevioside ([4]; 2 h): not converted
- product of the reaction of stevioside ([4]; 20 h): steviolbioside is produced
- conversion of stevioside [5]: not converted
- n-butyl alcohol/water partition coefficients ([1]; n-butyl alcohol/water): 0.36
- content of stevioside in the reaction mixture [6]: no change

- n-butyl alcohol/water partition coefficients [1]: 0.2
Compound: rebaudioside C

- reaction of rebaudioside A with lactase ([3]; 10 g/L rebaudioside A, 100 U/g rebaudioside A, 30° C., 24 h): did not react
- reaction of rebaudioside A with lactase in mixture with stevioside ([3]; 50 wt % rebaudioside A + 50 wt % stevioside, 200 U/g stevioside, 2 h (FIG. 4A)): does not react
- n-butyl alcohol/water partition coefficients [1]: 0.09
Compound: C=C1C[C@@]23CC[C@H]4[C@@](C)(CCC[C@@]4(C)C(=O)O[C@@H]4O[C@H](CO)[C@@H](O)[C@H](O)[C@H]4O)[C@@H]2CC[C@]1(O[C@@H]1O[C@H](CO)[C@@H](O)[C@H](O[C@@H]2O[C@H](CO)[C@@H](O)[C@H](O)[C@H]2O)[C@H]1O[C@@H]1O[C@H](CO)[C@@H](O)[C@H](O)[C@H]1O)C3 [rebaudioside A]
